Data from US9597407B2, “Targeted antimicrobial moieties” (C3 Jian, Inc., priority 2009, dated 2017).
“Also recorded” adds a separate entry of the source.

Each substance was assayed on bacteria (assay: Binding of targeting peptides to microorganisms (Table 3)). Conditions: microorganism bound by the targeting peptide; binding in aqueous buffers chosen by peptide solubility, preferably 1x PBS.
With “PF-323 (ARESIEKSHVPVDATIVGVVDSFEVFDE; Peptide with targeting and/or antimicrobial activity)” the “Target(s)” value was “S. mutans”. In the case of “PF-320 (DSGYYALLENKEERVVWDGEVVANNIFNNLWIVVNKVKTG; Peptide with targeting and/or antimicrobial activity)”, the “Target(s)” value is reported as “S. mutans; also recorded: E. coli”. “PF-351 (YLFFKGKKVAEEEATKDEVKR; Peptide with targeting and/or antimicrobial activity)” was tested, and the “Target(s)” value was “S. mutans”. “PF-160 (SFHASLTKNEKPIKSTG; Peptide with targeting and/or antimicrobial activity)” was tested, and the “Target(s)” value was “S. epidermidis”. “PF-352 (RVKKIG; Peptide with targeting and/or antimicrobial activity)” was tested, and the “Target(s)” value was “C. jeikeium”. For “PF-365 (LYKQKIQLEEELEKLKDDRQ; Peptide with targeting and/or antimicrobial activity)”, the “Target(s)” value was “S. epidermidis; also recorded: B. subtilis; also recorded: B. fragilis; also recorded: P. aeruginosa; also recorded: C. albicans”. “PF-230 (EDKPTNTIQEIKPVKWQ; Peptide with targeting and/or antimicrobial activity)” was tested, and the “Target(s)” value was “S. mutans”. For “PF-384 (HISKERFEAY; Peptide with targeting and/or antimicrobial activity)”, the “Target(s)” value was “E. faecalis; also recorded: C. jeikeium; also recorded: C. jejuni”. “PF-317 (LILVSDI; Peptide with targeting and/or antimicrobial activity)” was tested, and the “Target(s)” value was “S. mutans”. With “PF-232 (FDQLYALEREGKLDELLA; Peptide with targeting and/or antimicrobial activity)” the “Target(s)” value was “S. epidermidis; also recorded: M. luteus”. In the case of “PF-334 (QQYLILDRM; Peptide with targeting and/or antimicrobial activity)”, the “Target(s)” value is reported as “S. epidermidis; also recorded: C. difficile”. In the case of “PF-141 (VVRRFQGM; Peptide with targeting and/or antimicrobial activity)”, the “Target(s)” value is reported as “S. epidermidis and M. luteus and C. albicans and MRSA and C. jeikeium”. “PF-197 (CNALLRRGHPPSAL; Peptide with targeting and/or antimicrobial activity)” was tested, and the “Target(s)” value was “S. epidermidis; also recorded: M. luteus; also recorded: C. albicans; also recorded: E. faecalis; also recorded: C. jejuni”. With “PF-183 (KPGISVENRQ; Peptide with targeting and/or antimicrobial activity)” the “Target(s)” value was “S. epidermidis and M. luteus and E. coli and C. albicans and MRSA and E. faecalis and C. jeikeium”. In the case of “PF-326 (VIVGNLGAQKEKRNDTPISAKKDIMGDKTVRVRADLHH; Peptide with targeting and/or antimicrobial activity)”, the “Target(s)” value is reported as “S. mutans; also recorded: E. coli”.

Same assay, conditions: microorganism the targeting peptide binds; binding in aqueous buffers that varied with peptide solubility, preferably 1x PBS
“1T-216 (FFLNVIAIRIPHF; Peptide with targeting and/or antimicrobial activity) [Peptide 1T-216]” was tested, and the “Target(s)” value was “S. sanguinis”. For “1T-273 (YNEPNYKWLESYKIYKQRCEDRTGMYYTEET; Peptide with targeting and/or antimicrobial activity) [Peptide 1T-273]”, the “Target(s)” value was “F. nucleatum; also recorded: P. gingivalis; also recorded: T. denticola; also recorded: S. mitis; also recorded: S. mutans; also recorded: S. oralis”. “1T-268 (PITPKKEKCGLGTYAPKNPVFSKSRV; Peptide with targeting and/or antimicrobial activity) [Peptide 1T-268]” was tested, and the “Target(s)” value was “F. nucleatum; also recorded: S. mutans; also recorded: S. oralis; also recorded: S. sanguinis”. In the case of “TT-308 (GLVIIPNLIALIILFSQVRQQTKDYFSNPKLSSR; Peptide with targeting and/or antimicrobial activity)”, the “Target(s)” value is reported as “F. nucleatum”. “1T-295 (KYKLKKIIL; Peptide with targeting and/or antimicrobial activity) [Peptide 1T-295]” was tested, and the “Target(s)” value was “S. mitis; also recorded: S. salivarious; also recorded: S. sanguinis”. In the case of “1T-242 (KQVQNTTLIICGTVLLGILFKSYLKSQKSV; Peptide with targeting and/or antimicrobial activity) [Peptide 1T-242]”, the “Target(s)” value is reported as “F. nucleatum; also recorded: S. sanguinis”.

Same assay, conditions: peptide binding in aqueous buffers that varied depending on peptide solubility; preferably 1x PBS
PEIIKIVSGLL [PF-758] was tested, and the “Target(s) (microorganism bound by the targeting peptide)” value was “S. epidermidis and M. luteus and E. coli and MRSA and S. pneumoniae and E. faecalis and C. jeikeium”. For “PF-441 (TQVHKMARGIDPGPANGIYR; Peptide with targeting and/or antimicrobial activity)”, the “Target(s) (microorganisms bound by the targeting peptide)” value was “C. jeikeium”. With “PF-C285 (FTIIELKKQKIKHGENNKKTAHPLNEPFCARA; Peptide with targeting and/or antimicrobial activity)” the “Target(s) (microorganism bound by the targeting peptide)” value was “A. naeslundii; also recorded: F. nucleatum; also recorded: P. gingivalis; also recorded: S. mutans; also recorded: T. denticola”. For “PF-487 (MYKAIAVLAMTIMAFFIFVYPFFIVGLILG; Peptide with targeting and/or antimicrobial activity)”, the “Target(s) (microorganisms bound by the targeting peptide)” value was “S. mutans; also recorded: E. coli”. In the case of “PF-409 (DLVQSILSEFKKSG; Peptide with targeting and/or antimicrobial activity)”, the “Target(s) (microorganisms bound by the targeting peptide)” value is reported as “S. epidermidis and MRSA and C. jeikeium and C. jejuni”. For “PF-705 (GEEEGTVAD; Peptide with targeting and/or antimicrobial activity)”, the “Target(s) (microorganism bound by the targeting peptide)” value was “S. mutans; also recorded: E. coli”. “PF-507 (LALSIANLFKKKA; Peptide with targeting and/or antimicrobial activity)” was tested, and the “Target(s) (microorganisms bound by the targeting peptide)” value was “S. mutans; also recorded: E. coli”. In the case of “PF-789 (PRGAQSGHG; Peptide with targeting and/or antimicrobial activity)”, the “Target(s) (microorganism bound by the targeting peptide)” value is reported as “Mycobacteria spp”. In the case of “PF-780 (AVYDALVALAAAEHRAELATRDARAKDTYEKIGVHVVVAA; Peptide with targeting and/or antimicrobial activity)”, the “Target(s) (microorganism bound by the targeting peptide)” value is reported as “Mycobacteria spp”. “PF-C273 (KNMLKRRMKQKRLFDEEDRLRVLSKYTKSYY; Peptide with targeting and/or antimicrobial activity)” was tested, and the “Target(s) (microorganism bound by the targeting peptide)” value was “A. naeslundii; also recorded: P. gingivalis; also recorded: S. mutans; also recorded: T. denticola”.

Same assay, conditions: peptide binding in aqueous buffers varied by peptide solubility; preferably 1x PBS
With “1T-56 (LALIGAGIWMIRKG; Peptide with targeting and/or antimicrobial activity) [Peptide 1T-56]” the “Target(s) (microorganism bound by the targeting peptide)” value was “C. xerosis; also recorded: P. aeruginosa”. In the case of “1T-37 (YIVGALVILAVAGLIYSMLRKA; Peptide with targeting and/or antimicrobial activity) [Peptide 1T-37]”, the “Target(s) (microorganism bound by the targeting peptide)” value is reported as “S. mutans; also recorded: S. aereus; also recorded: S. epidermidis; also recorded: C. jeikeium; also recorded: C. xerosis; also recorded: C. striatum; also recorded: P. aeruginosa”. “1T-63 (EPLILKELVRNLFLFCYARALR; Peptide with targeting and/or antimicrobial activity) [Peptide 1T-63]” was tested, and the “Target(s) (microorganism bound by the targeting peptide)” value was “S. aureus; also recorded: S. epidermidis; also recorded: C. jeikeium; also recorded: C. xerosis; also recorded: C. striatum; also recorded: P. aeruginosa”. With “1T-9 (WAWAESPRCVSTRSNIHALAFRVEVAALT; Peptide with targeting and/or antimicrobial activity) [Peptide 1T-9]” the “Target(s) (microorganism bound by the targeting peptide)” value was “M. xanthus”. With “1T-21 (YVEEAVRAALKKEARISTEDTPVNLPSFDC; Peptide with targeting and/or antimicrobial activity) [Peptide 1T-21]” the “Target(s) (microorganism bound by the targeting peptide)” value was “S. mutans; also recorded: P. aeruginosa”. For “1T-25 (VGLDVSVLVLFFGLQLLSVLLGAMIR; Peptide with targeting and/or antimicrobial activity) [Peptide 1T-25]”, the “Target(s) (microorganism bound by the targeting peptide)” value was “S. aureus; also recorded: S. epidermidis; also recorded: C. xerosis; also recorded: C. striatum; also recorded: P. aeruginosa”. “1T-30 (GKAKPYQVRQVLRAVDKLETRRKKGGR; Peptide with targeting and/or antimicrobial activity) [Peptide 1T-30]” was tested, and the “Target(s) (microorganism bound by the targeting peptide)” value was “S. aureus; also recorded: S. epidermidis; also recorded: C. xerosis; also recorded: C. striatum; also recorded: P. aeruginosa”. In the case of “1T-60 (YLTSLGLDAAEQAQGLLTILKG; Peptide with targeting and/or antimicrobial activity) [Peptide 1T-60]”, the “Target(s) (microorganism bound by the targeting peptide)” value is reported as “S. aureus; also recorded: S. epidermidis; also recorded: C. jeikeium; also recorded: C. striatum; also recorded: P. aeruginosa”. With “1T-185 (HYHFLLEFGFHKGDYLE; Peptide with targeting and/or antimicrobial activity) [Peptide 1T-185]” the “Target(s) (microorganism bound by the targeting peptide)” value was “A. naeslundii; also recorded: F. nucleatum; also recorded: P. gingivalis”. In the case of “1T-33 (VRTLTILVIFIFNYLKSISYKLKQPFENNLAQSMISI; Peptide with targeting and/or antimicrobial activity) [Peptide 1T-33]”, the “Target(s) (microorganism bound by the targeting peptide)” value is reported as “S. aureus; also recorded: S. epidermidis; also recorded: C. jeikeium; also recorded: C. xerosis; also recorded: C. striatum; also recorded: P. aeruginosa”. In the case of “1T-59 (AVGNNLGKDNDSGHRGKKHRKHKHR; Peptide with targeting and/or antimicrobial activity) [Peptide 1T-59]”, the “Target(s) (microorganism bound by the targeting peptide)” value is reported as “S. aureus; also recorded: S. epidermidis; also recorded: P. aeruginosa”. For “1T-96 (VAGACAQPFGGQ; Peptide with targeting and/or antimicrobial activity) [Peptide 1T-96]”, the “Target(s) (microorganism bound by the targeting peptide)” value was “S. gordonii; also recorded: S. mitis; also recorded: S. mutans; also recorded: S. oralis; also recorded: S. sanguinis”. “1T-64 (QTVHHIHMHVLGQRQMHWPPG; Peptide with targeting and/or antimicrobial activity) [Peptide 1T-64]” was tested, and the “Target(s) (microorganism bound by the targeting peptide)” value was “S. aureus; also recorded: S. epidermidis; also recorded: C. jeikeium; also recorded: C. xerosis; also recorded: C. striatum; also recorded: P. aeruginosa”. In the case of “1T-17 (NNAIVYIS; Peptide with targeting and/or antimicrobial activity) [Peptide 1T-17]”, the “Target(s) (microorganism bound by the targeting peptide)” value is reported as “S. mutans”.
